Experiments:
Assay in all cases: in vitro antibacterial activity, agar dilution MIC
Assay type in all cases: cell-based
[1] = tested on: Streptococcus Pheumoniae 5979; settings: organism code ZZ, BHI agar, 35-37 °C, 20 to 24 hours
Procedure: (§1) Representative compounds of the present invention were assayed in vitro for antibacterial activity as follows: Twelve petri dishes containing successive aqueous dilutions of the test compound mixed with 10 mL of sterilized Brain Heart Infusion (BHI) agar (Difco 0418-01-5) were prepared. Each plate was inoculated with 1:100 (or 1:10 for slow-growing strains, such as Micrococcus and Streptococcus) dilutions of up to 32 different microorganisms, using a Steers replicator block. […] In addition, a control plate, using BHI agar containing no test compound, was prepared and incubated at the beginning and end of each test
(§2) An additional plate containing a compound having known susceptibility patterns for the organisms being tested and belonging to the same antibiotic class as the test compound was also prepared and incubated as a further control, as well as to provide test-to-test comparability.
(§3) After incubation, each plate was visually inspected. The minimum inhibitory concentration (MIC) was defined as the lowest concentration of drug yielding no growth, a slight haze, or sparsely isolated colonies on the inoculum spot as compared to the growth control.

Candida albicans CCH 442 = settings: organism code TT, BHI agar, 35-37 °C, 20 to 24 hours
Procedure: as §1, §2, §3

[2] = tested on: Staphylococcus aureus A-5278; settings: organism code CC, BHI agar, 35-37 °C, 20 to 24 hours
Procedure: as §1, §2, §3

[3] = tested on: Streptococcus pyogenes 930; settings: organism code MM, BHI agar, 35-37 °C, 20 to 24 hours
Procedure: as §1, §2, §3

[4] = tested on: Staphylococcus aureus 1775; settings: organism code GG, BHI agar, 35-37 °C, 20 to 24 hours
Procedure: as §1, §2, §3

Escherichia coli DC-2 = settings: organism code SS, BHI agar, 35-37 °C, 20 to 24 hours
Procedure: as §1, §2, §3

[5] = tested on: Streptococcus pyogenes PIU 2548; settings: organism code NN, BHI agar, 35-37 °C, 20 to 24 hours
Procedure: as §1, §2, §3

[6] = tested on: Staphylococcus aureus A5177; set-up: unit not given here; settings: organism code BB, BHI agar, 35-37 °C, 20 to 24 hours
Procedure: as §1, §2, §3

[7] = tested on: Mycobacterium smegmatis ATCC 114; set-up: unit not given here; settings: organism code UU, BHI agar, 35-37 °C, 20 to 24 hours
Procedure: as §1, §2, §3

Escherichia coli SS = settings: organism code RR, BHI agar, 35-37 °C, 20 to 24 hours
Procedure: (§4) Erythromycin A was used for this purpose.
(§5) After incubation, each plate was visually inspected.

Escherichia coli JUHL = settings: organism code QQ, BHI agar, 35-37 °C, 20 to 24 hours
Procedure: as §4, §5

[8] = tested on: Micrococcus luteus ATCC 9341; settings: organism code OO, BHI agar, 35-37 °C, 20 to 24 hours
Procedure: as §4, §5

[9] = tested on: Streptococcus Pheumoniae GYR 1171; settings: organism code YY, BHI agar, 35-37 °C, 20 to 24 hours
Procedure: as §4, §5

[10] = tested on: Enterococcus faecium ATCC 8043; settings: organism code II, BHI agar, 35-37 °C, 20 to 24 hours
Procedure: as §4, §5

[11] = tested on: Haemophilis Influenzae DILL AMP R; settings: organism code WW, BHI agar, 35-37 °C, 20 to 24 hours
Procedure: as §4, §5

[12] = tested on: Staphylococcus aureus CMX 642A; settings: organism code DD, BHI agar, 35-37 °C, 20 to 24 hours
Procedure: as §4, §5

[13] = tested on: Streptococcus Pheumoniae 5649; settings: organism code ZZA, BHI agar, 35-37 °C, 20 to 24 hours
Procedure: as §4, §5

[14] = tested on: Nocardia Asteroides ATCC9970; settings: organism code VV, BHI agar, 35-37 °C, 20 to 24 hours
Procedure: as §4, §5

[15] = tested on: Staphylococcus aureus CMX 553; settings: organism code FF, BHI agar, 35-37 °C, 20 to 24 hours
Procedure: as §4, §5

[16] = tested on: Staphylococcus aureus NCTC10649M; settings: organism code EE, BHI agar, 35-37 °C, 20 to 24 hours
Procedure: as §4, §5

[17] = tested on: Micrococcus luteus ATCC 4698; settings: organism code PP, BHI agar, 35-37 °C, 20 to 24 hours
Procedure: as §4, §5

[18] = tested on: Staphylococcus epidermidis 3519; settings: organism code HH, BHI agar, 35-37 °C, 20 to 24 hours
Procedure: as §4, §5

[19] = tested on: Streptococcus agalactiae CMX 508; set-up: unit not given here; settings: organism code KK, BHI agar, 35-37 °C, 20 to 24 hours
Procedure: as §4, §5

[20] = tested on: Streptococcus pyogenes EES61; set-up: unit not given here; settings: organism code LL, BHI agar, 35-37 °C, 20 to 24 hours
Procedure: as §4, §5

[21] = tested on: Staphylococcus aureus ATCC 6538P; set-up: unit not given here; settings: organism code AA, BHI agar, 35-37 °C, 20 to 24 hours
Procedure: as §4, §5

[22] = tested on: Streptococcus Pheumoniae ATCC6303; set-up: unit not given here; settings: organism code XX, BHI agar, 35-37 °C, 20 to 24 hours
Procedure: as §4, §5

[23] = tested on: Streptococcus bovis A-5169; set-up: unit not given here; settings: organism code JJ, BHI agar, 35-37 °C, 20 to 24 hours
Procedure: as §4, §5

Structure (SMILES) | minimum inhibitory concentration (MIC) [1] | minimum inhibitory concentration (MIC) (Candida albicans CCH 442) | minimum inhibitory concentration (MIC) [2] | minimum inhibitory concentration (MIC) [3] | minimum inhibitory concentration (MIC) [4] | minimum inhibitory concentration (MIC) (Escherichia coli DC-2) | minimum inhibitory concentration (MIC) [5] | minimum inhibitory concentration (MIC) [6] | minimum inhibitory concentration (MIC) [7] | minimum inhibitory concentration (MIC) (Escherichia coli SS) | minimum inhibitory concentration (MIC) (Escherichia coli JUHL) | minimum inhibitory concentration (MIC) [8] | minimum inhibitory concentration (MIC) [9] | minimum inhibitory concentration (MIC) [10] | minimum inhibitory concentration (MIC) [11] | minimum inhibitory concentration (MIC) [12] | minimum inhibitory concentration (MIC) [13] | minimum inhibitory concentration (MIC) [14] | minimum inhibitory concentration (MIC) [15] | minimum inhibitory concentration (MIC) [16] | other results
CC[C@H]1OC(=O)[C@H](C)[C@@H](O[C@H]2C[C@@](C)(OC)[C@@H](O)[C@H](C)O2)[C@H](C)[C@@H](O[C@@H]2O[C@H](C)C[C@H](N(C)C)[C@H]2O)[C@@]2(C)C[C@@H](C)C(=O)[C@H](C)[C@H]3N(CCNC(=O)Cc4ccccc4C=CCO2)C(=O)O[C@]13C [Example 6, Compound of Formula (I), 2'-R^p is H, 4"-R^p is H, m is 2, A is NH, B is -C(O)-(CH2)q-, q is 1, D is 1,2-phenylene, E is-(CH2)r-CH=CH-, r is 0, n is 1] | >128 | >100 | >100 | >100 | >100 | >100 | 12.5 | 12.5 | 0.39 | 3.1 | 100 | 0.1 | 0.03 | 0.39 | 8 | 1.56 | 16 | 0.39 | 0.78 | 1.56 | minimum inhibitory concentration (MIC) [17]: 0.78; minimum inhibitory concentration (MIC) [18]: 0.78; minimum inhibitory concentration (MIC) [19]: 0.1; minimum inhibitory concentration (MIC) [20]: 0.2; minimum inhibitory concentration (MIC) [21]: 0.78; minimum inhibitory concentration (MIC) [22]: 0.03; minimum inhibitory concentration (MIC) [23]: 0.1
CC[C@H]1OC(=O)[C@H](C)C(=O)[C@H](C)[C@@H](O[C@@H]2O[C@H](C)C[C@H](N(C)C)[C@H]2O)[C@@]2(C)C[C@@H](C)C(=O)[C@H](C)[C@H]3N(CCC=CCO2)C(=O)O[C@]13C [Example 18, Compound of Formula (II), R^p is H, m is 2, A is absent, B is absent, D is absent, E is-(CH2)r-CH=CH-, r is 0, n is 1] | >128 | >100 | >100 | >100 | >100 | >100 | 1.56 | 0.78 | 12.5 | 1.56 | >100 | 0.39 | 0.5 | 0.39 | 128 | 0.78 | 2 | 0.78 | 0.78 | 0.78 | minimum inhibitory concentration (MIC) [17]: 0.78; minimum inhibitory concentration (MIC) [18]: 1.56; minimum inhibitory concentration (MIC) [19]: 0.2; minimum inhibitory concentration (MIC) [20]: 0.2; minimum inhibitory concentration (MIC) [21]: 0.78; minimum inhibitory concentration (MIC) [22]: 1; minimum inhibitory concentration (MIC) [23]: 0.2
CC[C@H]1OC(=O)[C@H](C)C(=O)[C@H](C)[C@@H](O[C@@H]2O[C@H](C)C[C@H](N(C)C)[C@H]2O)[C@@]2(C)C[C@@H](C)C(=O)[C@H](C)[C@H]3N(CC=CCO2)C(=O)O[C@]13C [Example 16, Compound of Formula (II), R^p is H, m is 1, A is absent, B is absent, D is absent, E is-(CH2)r-CH=CH-, r is 0, n is 1] | >128 | >100 | >100 | >100 | >100 | >100 | 0.39 | 0.39 | 6.2 | 0.78 | >100 | 0.2 | 0.25 | 0.2 | 32 | 0.39 | 0.5 | 0.39 | 0.39 | 0.39 | minimum inhibitory concentration (MIC) [17]: 0.39; minimum inhibitory concentration (MIC) [18]: 0.39; minimum inhibitory concentration (MIC) [19]: 0.2; minimum inhibitory concentration (MIC) [20]: 0.2; minimum inhibitory concentration (MIC) [21]: 0.39; minimum inhibitory concentration (MIC) [22]: 0.25; minimum inhibitory concentration (MIC) [23]: 0.2
